Reference: US20260272878A1, “ADAR1 INHIBITORS AND USES THEREOF” (THE WISTAR INSTITUTE OF ANATOMY AND BIOLOGY, priority 2023, published 2026)
“Also recorded” adds a separate entry of the source. One block for each compound: values may come before it.

Assays:
ADAR1p110-WT = biological target: T1, ADAR1p110-WT (Homo sapiens, UniProt P55265); assay: Biacore SPR binding to ADAR1p110-WT
T1 construct: made in house; host or cells: Sf9 cells (baculovirus)
T1 sequence (P55265 1-931 isoform P55265-5): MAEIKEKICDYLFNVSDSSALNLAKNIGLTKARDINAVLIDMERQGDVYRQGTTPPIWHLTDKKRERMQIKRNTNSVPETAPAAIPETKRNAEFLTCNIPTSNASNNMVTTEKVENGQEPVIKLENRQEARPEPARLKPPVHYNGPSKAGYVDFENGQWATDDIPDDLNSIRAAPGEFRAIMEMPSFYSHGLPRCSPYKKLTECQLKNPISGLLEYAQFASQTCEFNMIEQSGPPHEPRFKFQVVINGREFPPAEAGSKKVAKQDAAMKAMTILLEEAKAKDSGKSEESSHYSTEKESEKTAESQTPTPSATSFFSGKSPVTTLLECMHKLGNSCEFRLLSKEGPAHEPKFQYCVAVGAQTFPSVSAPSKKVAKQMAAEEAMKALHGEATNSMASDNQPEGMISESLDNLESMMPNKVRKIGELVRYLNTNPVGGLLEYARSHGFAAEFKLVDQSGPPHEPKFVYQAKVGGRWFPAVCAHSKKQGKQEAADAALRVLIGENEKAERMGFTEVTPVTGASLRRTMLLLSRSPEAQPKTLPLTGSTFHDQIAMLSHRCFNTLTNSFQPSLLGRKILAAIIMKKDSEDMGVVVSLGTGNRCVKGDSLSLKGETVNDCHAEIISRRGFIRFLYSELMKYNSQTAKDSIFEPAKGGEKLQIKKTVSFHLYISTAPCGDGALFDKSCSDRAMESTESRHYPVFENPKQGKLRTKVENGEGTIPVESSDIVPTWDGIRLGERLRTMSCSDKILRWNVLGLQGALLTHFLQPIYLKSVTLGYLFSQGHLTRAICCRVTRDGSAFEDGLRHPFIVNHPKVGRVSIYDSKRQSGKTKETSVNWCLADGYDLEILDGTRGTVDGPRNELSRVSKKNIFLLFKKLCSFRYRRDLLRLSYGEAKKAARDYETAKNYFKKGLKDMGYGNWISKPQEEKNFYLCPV
Text: FIGS. 5A-5D show Biacore SPR analysis for binding of ADAR1i to ADAR1p110. (FIG. 5A) SPR analysis for binding kinetics of 8 compounds to ADAR1p110-WT. ADAR1 inhibition positive (ADAR1i-13, ADAR1i-120, ADAR1i-124) and negative compounds. (FIG. 5B, FIG. 5C) […] of SPR analysis for binding of ADAR1i-13 and ADAR1i-124 to ADAR1p110-WT and ADAR1p110-E912A as well as negative control proteins, GAPDH and HuR, are shown. […] ADAR1-E912, equivalent of ADAR2 E396, is located in the catalytic center.
No complete 3-D structure of ADAR1 is currently available. […] The glutamate E912 and E396 in ADAR1 and ADAR2, respectively, plays an important proton transfer function during hydrolytic deamination reaction (42, 43).

YUMM1.7 cells = assay: Immunostaining (MAb J2) of unedited dsRNA fibers; assay type: cell-based, mouse; settings: for Unedited dsRNA fiber structures in cells: immunostaining with MAb J2, YUMM1.7 cells
Text: FIGS. 7A-7C show analysis of ADAR1i-13 and analogs. […] IC50 values determined by dose-dependent in vitro editing assay are shown for ADAR1 inhibition positive compounds. […] Dumbbell-shaped dsRNA has been reported to form Z-RNA conformation and act as a strong IFN signaling activation triggers. ADAR1p150 mediated A-to-I editing suppresses Z-RNA structure transition and activation of IFN signaling.
It has been reported that the suppression ADAR1 editing activity results in binding of MDA5 to unedited dsRNAs, oligomerization of MDA5-dsRNA complexes, and formation of fiber-like structures (21, 44). These dsRNA fiber structures were detected in cells treated with ADAR1 inhibition active compounds, ADAR1i-13, ADAR1i-120, and ADAR1i-124, but not detected in cells treated with ADAR1 inhibition negative compounds (FIG. 7A).

HeLa cells [1] = assay: Western blotting of treated HeLa cells (DNA damage, M phase arrest, apoptosis); assay type: cell-based, human; settings: 10 μM for ADAR1i-124
Method: FIGS. 8A-8C show analysis of ADAR1i-124 effects in cancer cells. […] Viability was examined using the Apo Tox-Glo assay system. Control, 0.3% DMSO. Data: mean±SD (n=3). Significant differences identified by two-tailed Student's t-tests: *P<0.05, n.s., not significant. (FIG. 8B) Western blotting analysis of HeLa cells treated with ADAR1i-124 (10 μM).
Dose-dependent selective killing of telomerase reactivated cancer cells was determined (FIG. 9A).

HeLa cells [2] = assay: Dot blot analysis for RNA:DNA hybrids (R-loops); assay type: cell-based, human; settings: 10 μM for ADAR1i-124

SMILES: N#Cc1ccc(NC(=O)c2c(Cl)c3ccccc3n2CO)cc1 [ADAR1i-124]
- Binding to ADAR1p110-WT (ADAR1p110-WT): direct binding
- RNase III sensitivity of induced dsRNA fibers (YUMM1.7 cells; RNase III treatment): abolished by RNase III treatment; also recorded: sensitive to RNase III treatment
- Unedited dsRNA fiber structures in cells (YUMM1.7 cells): detected; also recorded: unedited dsRNA fibers induced
- DNA damage, M phase arrest and apoptosis markers (HeLa cells [1]): induced DNA damage, M phase arrest, and apoptosis; also recorded: upregulated g-H2AX, Histone 3 phosphorylated at Serine 10, and cleaved PARP bands
- Formation of R-loops (RNA:DNA hybrids) (HeLa cells [2]): increased formation of R-loops; also recorded: RNA:DNA hybrids induced

- Binding to ADAR1p110-WT (ADAR1p110-WT): direct binding
SMILES: N#Cc1ccc(NC(=O)c2sc3ccccc3c2Cl)cc1 [ADAR1i-13, 3-chloro-N-(4-cyanophenyl)-1-benzothiophene-2-carboxamide]
- Unedited dsRNA fiber structures in cells (YUMM1.7 cells): detected; also recorded: unedited dsRNA fibers induced
- DNA damage, M phase arrest and apoptosis markers (HeLa cells [1]): induced DNA damage, M phase arrest, and apoptosis
- Formation of R-loops (RNA:DNA hybrids) (HeLa cells [2]): increased formation of R-loops

- Binding to ADAR1p110-WT (ADAR1p110-WT): direct binding
SMILES: N#Cc1ccccc1NC(=O)c1sc2ccccc2c1Cl [ADAR1i-120]
- Unedited dsRNA fiber structures in cells (YUMM1.7 cells): detected; also recorded: unedited dsRNA fibers induced
- DNA damage, M phase arrest and apoptosis markers (HeLa cells [1]): induced DNA damage, M phase arrest, and apoptosis
- Formation of R-loops (RNA:DNA hybrids) (HeLa cells [2]): increased formation of R-loops
